Key:
[1] = tested on: CBSA-5335 (fluorophore/quencher-modified) (DNA, aptamer, C3 spacer abasic at 10 of strand 2) CTCCTTCAACGAAGTGGGTCTCCTTCAACGAAGTGGGTCTC/GAGACAAGGNGACAAGGAGT; assay: fluorophore/quencher assembly assay; settings: 100 μM MgCl2
[2] = tested on: 38-GC (DNA, aptamer) GGGAGACAAGGAAAATCCTTCAACGAAGTGGGTCTCCC; assay: ITC; settings: 20 μM aptamer, 500 μM cocaine titrant
[3] = tested on: 38-GC-20C (DNA, aptamer) GGGAGACAAGGAAAATCCTCCAACGAAGTGGGTCTCCC; assay: ITC; settings: 20 μM aptamer, 500 μM cocaine titrant
[4] = tested on: 38-GC-20A (DNA, aptamer) GGGAGACAAGGAAAATCCTACAACGAAGTGGGTCTCCC; assay: ITC; settings: 20 μM aptamer, 500 μM cocaine titrant
[5] = tested on: CBSA-5335-GT (fluorophore/quencher-modified) (DNA, aptamer, C3 spacer abasic at 10 of strand 2) CTCCTTCAATGAAGTGGGTCTCCTTCAACGAAGTGGGTCTC/GAGACAAGGNGACAAGGAGT; assay: fluorophore/quencher assembly titration, Hill fit; settings: 100 μM MgCl2; 10 mM Tris-HCl, pH 7.4, room temperature; 1 μM each strand; nH 1.5; apparent
[6] = tested on: CBSA-5435 (DNA, aptamer, C3 spacer abasic at 11 of strand 2) CTCCTTCAACGAAGTGGGTCTTCCTTCAACGAAGTGGGTCTC/GAGACAAGGANGACAAGGAG; assay: ATMND quenching assembly assay; settings: 100 μM MgCl2
[7] = tested on: PSA (DNA, aptamer, C3 spacer abasic at 3 of strand 2) CTCCTTCAACGAAGTGGGTTCC/GGNACAAGGAG; assay: ITC, single-site fit; settings: 100 μM MgCl2; 10 mM Tris-HCl, pH 7.4, 20 °C
[8] = tested on: 38-GC-22T (DNA, aptamer) GGGAGACAAGGAAAATCCTTCTACGAAGTGGGTCTCCC; assay: ITC; settings: 20 μM aptamer, 500 μM cocaine titrant
[9] = tested on: CBSA-5335 (fluorophore/quencher-modified) (DNA, aptamer, C3 spacer abasic at 10 of strand 2) CTCCTTCAACGAAGTGGGTCTCCTTCAACGAAGTGGGTCTC/GAGACAAGGNGACAAGGAGT; assay: fluorophore/quencher assembly titration, Hill fit; settings: 100 μM MgCl2; 10 mM Tris-HCl, pH 7.4, room temperature; 1 μM each strand; nH 1.5; apparent; b21 prints 33 μM
[10] = tested on: CBSA-M2 (DNA, aptamer, C3 spacer abasic at 10 of strand 2) CTCCTTCGACGAAGTGGGTTCCTTCAACGAAGTGGGTCTC/GAGACAAGGNACAAGGAG; assay: ATMND quenching assembly assay; settings: 100 μM MgCl2; 10 mM Tris-HCl, pH 7.4; 1 μM each strand; 200 nM ATMND; cocaine tested at 250 μM
[11] = tested on: CBSA-5445 (DNA, aptamer, C3 spacer abasic at 11 of strand 2) CTCCTTCAACGAAGTGGGTTCTTCCTTCAACGAAGTGGGTCTC/GAGACAAGGANGAACAAGGAG; assay: ATMND quenching assembly assay; settings: 100 μM MgCl2
[12] = tested on: CBSA-5325 (fluorophore/quencher-modified) (DNA, aptamer, C3 spacer abasic at 10 of strand 2) CTCCTTCAACGAAGTGGGTTCCTTCAACGAAGTGGGTCTC/GAGACAAGGNACAAGGAGT; assay: fluorophore/quencher assembly titration, Hill fit; settings: 100 μM MgCl2; 10 mM Tris-HCl, pH 7.4, room temperature; 1 μM each strand; nH 1.1; apparent
[13] = tested on: CBSA-5325 (DNA, aptamer, C3 spacer abasic at 10 of strand 2) CTCCTTCAACGAAGTGGGTTCCTTCAACGAAGTGGGTCTC/GAGACAAGGNACAAGGAG; assay: ATMND quenching assembly assay; settings: 100 μM MgCl2; 10 mM Tris-HCl, pH 7.4; 1 μM each strand; 200 nM ATMND; 250 μM cocaine, 72% quenching
[14] = tested on: LSA (DNA, aptamer, C3 spacer abasic at 10 of strand 2) CTCCTTCAACGAAGTGGGTTCCTTGTCTC/GAGACAAGGNACAAGGAG; assay: ATMND quenching assembly assay; settings: 100 μM MgCl2; 10 mM Tris-HCl, pH 7.4; 1 μM each strand; 250 μM cocaine, additional 10% change; mostly pre-assembled
[15] = tested on: 38-GC-22G (DNA, aptamer) GGGAGACAAGGAAAATCCTTCGACGAAGTGGGTCTCCC; assay: ITC; settings: 20 μM aptamer, 500 μM cocaine titrant
[16] = tested on: 38-GC-21T (DNA, aptamer) GGGAGACAAGGAAAATCCTTTAACGAAGTGGGTCTCCC; assay: ITC; settings: 20 μM aptamer, 500 μM cocaine titrant
[17] = tested on: CBSA-M1 (DNA, aptamer, C3 spacer abasic at 10 of strand 2) CTCCTTCAACGAAGTGGGTTCCTTCGACGAAGTGGGTCTC/GAGACAAGGNACAAGGAG; assay: ATMND quenching assembly assay; settings: 100 μM MgCl2; 10 mM Tris-HCl, pH 7.4; 1 μM each strand; 200 nM ATMND; cocaine tested at 250 μM
[18] = tested on: LSA (DNA, aptamer, C3 spacer abasic at 10 of strand 2) CTCCTTCAACGAAGTGGGTTCCTTGTCTC/GAGACAAGGNACAAGGAG; assay: fluorescence quenching; settings: 100 μM MgCl2; 10 mM Tris-HCl, pH 7.4; 1 μM each strand; 200 nM ATMND; no cocaine; 75% quenching
[19] = tested on: CBSA-5325 (DNA, aptamer, C3 spacer abasic at 10 of strand 2) CTCCTTCAACGAAGTGGGTTCCTTCAACGAAGTGGGTCTC/GAGACAAGGNACAAGGAG; assay: fluorescence quenching titration, Scatchard; settings: 100 μM MgCl2; 10 mM Tris-HCl, pH 7.4; 200 nM ATMND; 1 mM cocaine present (cocaine-assembled aptamer)

## CCOC(=O)[C@H]1[C@@H](OC(=O)c2ccccc2)C[C@@H]2CC[C@H]1N2C
[1]; 10% saliva, room temperature, 19% cross-reactivity at 50 μM, 3% at 5 μM
  binding: weak

## CN1CCC[C@H]1c1cccnc1
[1]; 10% saliva, 10 mM Tris-HCl, pH 7.4, room temperature, tested at 50 μM
  binding: no

## CN1[C@H]2CC[C@@H]1[C@@H](C(=O)O)[C@@H](OC(=O)c1ccccc1)C2
[1]
  binding: no

## COC(=O)C1=CC[C@@H]2CC[C@H]1N2C
[1]
  binding: no

## COC(=O)[C@H]1[C@@H](OC(=O)c2ccccc2)C[C@@H]2CC[C@H]1N2C
[2]
  KD: 2.60 µM
[3]
  KD: 714 µM
[4]
  KD: 169 µM
[5]
  K 1/2: 125 µM
[6]
  binding: yes
[7]
  KD: 2000 µM
[8]
  KD: 169 µM
[9]
  K 1/2: 36 µM
[10]
  binding: no
[11]
  binding: yes
[12]
  K 1/2: 106 µM
[13]
  binding: yes
[14]
  binding: weak
[15]
  binding: no
[16]
  KD: 49.3 µM
[17]
  binding: no

## Cc1nc2nc(N)ccc2c(C)c1C
[18]
  binding: yes
[19]
  KD: 0.365 µM

— paper PMC5308383 (2016)
